Measured values reported in patent US11123350B2, “Metal delivery agents and therapeutic uses of the same” (THE UNIVERSITY OF MELBOURNE, priority 2006, dated 2021).

How the values were obtained:
[1] = test system: EAE mouse model; assay: Experimental autoimmune encephalomyelitis (EAE) mouse model of MS; assay type: in vivo; conditions: daily oral treatment
Description: (§1) I. Cu(ATSM) is protective in mouse models of MS. The two most widely used mouse models of MS are the experimental autoimmune encephalomyelitis (EAE) and cuprizone models. Some features of progressive MS are evident in each model. Administration of Cu(ATSM) to these mice (daily oral treatment) established that: (a) Cu(ATSM) improved body weight changes and neurological symptoms evident in the EAE mouse model; (b) Cu(ATSM) improved body weight changes evident in the cuprizone mouse model; and (c) treating with Cu(ATSM) improves myelination in the corpus callosum of the cuprizone mouse model.

[2] = test system: G93A-SOD1 mice; assay: G93A SOD1 ALS mice: survival and onset of paralysis
[3] = test system: APP-transfected Chinese Hamster Ovary (APP-CHO) cells; assay: Cellular copper uptake of Cu-BTSC complexes (ICP-MS); assay type: cell-based
Procedure: APP-transfected Chinese Hamster Ovary (APP-CHO) cells were treated with a range of [Cu(BTSC] complexes with dialkyl backbones at 1-50 μM for 6 hr in serum-free culture medium. Cells were washed twice with phosphate buffered saline (PBS) and cells scraped into fresh PBS and pelleted at 10,000 rpm in a microfuge for 5 min. Supernatant was discarded and cell pellets frozen at −70° C. until metal levels were determined by inductively-coupled plasma mass spectrometry (ICP-MS) at the Department of Pathology, University of Melbourne.

[4] = cited from earlier work
[5] = test system: WT cells; assay: Dopamine induced cell death, WT cells (MTT); assay type: cell-based
Procedure: A series of trials were conducted in which the effect of CuGTSM on inhibiting Dopamine induced cell death were conducted on WT cells and A30P cells. The protocol used was as follows.
The cell line was maintained in OPTI-MEM (Gibco) supplemented with 10% fetal calf serum (FCS), Non-essential amino acids, sodium pyruvate and Penn/Strep. Cells were incubated at 37° C. in a humidified atmosphere of 95% air and 5% CO2. Cell assays were plated out into 48 well culture plates at 4×10^4 cells per well. Cells were left to settle overnight then incubated with drugs for 24h prior to being subjected to MTT assays for cell viability.
The viability of cells was assessed using an MTT assay. […] The mixture of media and reagents e.g. Dopamine was aspirated off and media containing 5 mg/mI MTT is added and the plate incubated for 1 h at 37° C. The remaining media/MTT solution is aspirated off and the cells were then solubilized with DMSO. The 48 well plate is then read at 595 nm on a plate reader.
In essence a series of WT cells and A30P cells were treated with a control, Dopamine, CuGTSM, Cu ATSM, and combinations of Dopamine and CuGTSM, and dopamine and CuATSM at various concentrations to determine the ability of the compound to act as an anti-oxidant and […] cell death. The results are shown in table 15 (WT cells) and Table 16 (A30P cells)

[6] = test system: cuprizone mouse model; assay: Cuprizone mouse model of MS; assay type: in vivo; conditions: daily oral treatment
Description: as §1

[7] = test system: mice with 6-OHDA lesion of the SNpc; assay: 6-OHDA lesion Parkinson's disease model, amphetamine-induced rotation; assay type: in vivo; conditions: oral gavage 10 or 30 mg/kg daily, 7 days pre-lesion and 14 days post lesion
[8] = test system: M17 human neuroblastoma cells; assay: Ionophore assay (metal uptake, ICPMS); assay type: cell-based; conditions: 5 hours at 37° C., reported versus internal control Clioquinol
Procedure: M17 human neuroblastoma cells were plated out on 6 well plates and left overnight. Enough cells were added to give approximately 70% confluent the following day of the experiment.
The test cells were incubated in 1 ml of media and compound mix for 5 hours at 37° C. At the end of the incubation the media was removed with a vacuum aspirator and 1 ml of PBS added to dislodge the cells. Cells are then put into Eppendorf tubes and pelleted. The PBS is removed and the remaining cell pellets are frozen at −20° C.
Cell pellets of similar levels are placed in 1.5 ml microfuge tubes. To each tube was added 50 μl of concentrated Nitric Acid (Aristar, BDH) to each cell pellet and allowed each cell pellet was allowed to digest overnight. The samples were heated for 20 min at 90° C. to complete the digestion. The volume of each sample was reduced to ˜45 ? l after digestion. To each was added 1 ml of the 1% Nitric Acid diluent. Measurements were made using a Varian UltraMass ICPMS instrument under operating conditions suitable for routine multi-element analysis.
The instrument was calibrated using Blank, 10, 50 and 100 ppb of a certified multi-element ICPMS standard solution (ICP-MS-CAI2-1, Accustandard) for Fe, Cu and Zn in 1% nitric acid. Used an certified internal standard solution containing 100 ppb Yttrium (Y 89) as an internal control (ICP-MS-IS-MIX1-1, Accustandard).

CN=C([S-])N/N=C(C)/C(C)=N/NC([S-])=NC.[64Cu+2] [Complex A2, copper(II)diacetylbis(N(4)-methylthiosemicarbazone)]
body weight changes in the EAE mouse model [1]: improved
neurological symptoms in the EAE mouse model [1]: improved
onset of paralysis in ALS mice ([2]; 30 mg/kg gavage once daily (5 days/week)): significantly delays
Increased Life Span ([2]; G93A-SOD1 mice, present results): 31 to 33 days
fold increase in cellular copper levels compared to untreated control cells ([3]; 1-50 μM, 6 hr): 177±9 fold
cellular Copper level ([3]; treated, control 4.5): 796 ng/mg protein
reduction potential E1/2 ([4]; Cu(II) to Cu(I)): −0.59 V
Cu(II)/Cu(I) reduction potential, harder to reduce than [Cu(GTSM)] ([4]; difference to [Cu(GTSM)]): ~160 mV
% recovery ([5]; Dopamine 500 μm + complex 0.01 μM): 64.28%
% recovery ([5]; Dopamine 500 μm + complex 0.1 μM): 103.13%
body weight changes in the cuprizone mouse model [6]: improved
myelination in the corpus callosum [6]: improves
amphetamine-induced rotation versus control group [7]: performed better
Ionophore (% uptake of metal at 10 μm) [8]: 157.1%
